The assay concerns TAC-induced heart failure model. Kind of assay: Transverse aortic constriction (TAC)-induced heart failure model (Example 4). In kind it is in vivo, C57/6J male mice. How it is done:
The transverse aortic constriction (TAC) model is the most commonly used disease model of chronic ventricular hypertrophy, which is used to simulate hypertrophic cardiomyopathy, heart failure, and hypertensive heart disease caused by hypertension or increased intraventricular pressure.
Nine-week-old C57/6J male mice were divided into five groups (sham group, TAC group, 30 mg/kg cmpagliflozin group (E30), 10 mg/kg empagliflozin+15 mg/kg menthol group (E10+M15), and 30 mg/kg empagliflozin+45 mg/kg menthol group (E30+M45)).
Experimental process of aortic arch constriction surgery: hair was removed from the surgical area from the neck to the anterior chest of the experimental mouse, and the surgical area was disinfected with iodine. The neck and chest were opened in the midline, the muscles were bluntly separated, the incision was retracted with retractors, the thymus was dissected, and the aortic arch was exposed. The innominate artery, left common carotid artery, and left subclavian artery were found along the aortic arch. The thread was passed between the right innominate artery and the left common carotid artery, and the constriction needle was paced parallel to the aortic arch and then the thread was tied a knot. After tightening the thread, the constriction needle was slowly withdrawn, that is, quantitative constriction was formed in the aortic arch. The chest cavity was closed, the skin on the neck and chest was sutured and disinfected with iodine. Two weeks after the operation, after confirming the hypertrophy of the heart through cardiac function test, drug administration started, and continued for 4 weeks. The drug administration group was gavaged once a day in the morning, and the sham group and TAC group were gavaged with the same amount of drinking water every morning.
The survival of mice was recorded during the experiment. After 4 weeks of continuous administration, the exercise tolerance of experimental mice was evaluated by rotarod test, suspension test and grip strength test. The rotarod test evaluated the maximum tolerance time of mice at a speed of 35 rpm, the suspension test evaluated the maximum tolerance time of mice forearm suspension, and the grip strength test evaluated the maximum grip strength of mice forepaws. […] After the experiment, the mice were euthanized, the hearts were weighed, the heart-body weight ratio was calculated, and then the hearts were fixed, paraffin-embedded, sliced, and Masson-stained. ImageJ was used to quantify the fibrosis area and calculate the degree of cardiac fibrosis. Graph Pad software was used for data processing and significant differences were calculated (OneWayANOVA was used between multiple groups, and Student's t test was used between two groups).

Regarding `OC[C@H]1O[C@@H](c2ccc(Cl)c(Cc3ccc(O[C@H]4CCOC4)cc3)c2)[C@H](O)[C@@H](O)[C@@H]1O` [empagliflozin], the “myocardial hypertrophy (heart weight to body weight ratio)” value (EMPA 30 mg/kg, 4 weeks) is listed as “significantly improves myocardial hypertrophy”. For the same molecule, the “mouse deaths during the experiment (survival)” value (EMPA 30 mg/kg, gavage once daily for 4 weeks) is on record as “one mouse died”. Where the note is “empagliflozin 30 mg/kg, 4 weeks”, the “cardiac function (ejection fraction, fractional shortening, LV diameters)” value was “significantly improves TAC-induced cardiac dysfunction”. Also, for the setting “empagliflozin alone 30 mg/kg, 4 weeks”, the “exercise tolerance (grip strength, rotarod, forearm suspension)” value is recorded as “cannot improve the exercise tolerance”.
